# Results from BindingDB's records for doi:10.1021/jm00015a003 (Warner-Lambert, 1995).
# Where a name gives a salt, the structure may show the parent alone. Numbered stars: 1 amine (or outer) side, 2 acyl side, 3 side chain; on linkers, the order of the positions; unused ones are H or OH. Square brackets hold non-standard residues; d marks the D form. Peptide text beside a SMILES is read from it. * marks the point of attachment. dDip = N[C@@H](C(=O)O)C(c1ccccc1)c1ccccc1; Dip = N[C@H](C(=O)O)C(c1ccccc1)c1ccccc1; Orn = NCCC[C@H](N)C(=O)O; CO = O=C([*:1])[*:2]; Tfa = O=C(C(F)(F)F)*; Ms = CS(=O)(=O)*
# Assay: Inhibition of ET-1 stimulated arachidonic acid release in rabbit renal vascular smooth muscle cells
row,Structure (SMILES),IC50 [nM]
1,"CC[C@H](C)[C@H](NC(=O)[C@H](CCC(=O)O)NC(=O)[C@H](CC(C)C)NC(=O)[C@@H](NC(C)=O)C(c1ccccc1)c1ccccc1)C(=O)N[C@H](C(=O)N[C@@H](Cc1c[nH]c2ccccc12)C(=O)O)[C@@H](C)CC [(S)-4-[(S)-2-((S)-2-Acetylamino-3,3-diphenyl-propionylamino)-4-methyl-pentanoylamino]-4-((1S,2S)-1-{(1S,2S)-1-[(S)-1-carboxy-2-(1H-indol-3-yl)-ethylcarbamoyl]-2-methyl-butylcarbamoyl}-2-methyl-butylcarbamoyl)-butyric acid] (Ac-[Dip]LEIIW-OH)",430
2,"CC[C@H](C)[C@H](NC(=O)[C@H](CC(=O)O)NC(=O)[C@@H](Cc1ccccc1)NC(=O)[C@@H](NC(C)=O)C(c1ccccc1)c1ccccc1)C(=O)N[C@H](C(=O)N[C@@H](Cc1c[nH]c2ccccc12)C(=O)O)[C@@H](C)CC [(S)-3-[(R)-2-((S)-2-Acetylamino-3,3-diphenyl-propionylamino)-3-phenyl-propionylamino]-N-((1S,2S)-1-{(1S,2S)-1-[(S)-1-carboxy-2-(1H-indol-3-yl)-ethylcarbamoyl]-2-methyl-butylcarbamoyl}-2-methyl-butyl)-succinamic acid]",520
3,"CC[C@H](C)[C@H](NC(=O)[C@H](CCC(=O)O)NC(=O)[C@H](CC(=O)O)NC(=O)[C@H](CC(C)C)NC(=O)[C@H](NC(C)=O)C(c1ccccc1)c1ccccc1)C(=O)N[C@@H](Cc1c[nH]c2ccccc12)C(=O)O [(S)-4-{(S)-2-[(S)-2-((S)-2-Acetylamino-3,3-diphenyl-propionylamino)-4-methyl-pentanoylamino]-3-carboxy-propionylamino}-4-{(1S,2S)-1-[(S)-1-carboxy-2-(1H-indol-3-yl)-ethylcarbamoyl]-2-methyl-butylcarbamoyl}-butyric acid] (Ac-[dDip]LDEIW-OH)",450
4,"CC[C@H](C)[C@H](NC(=O)[C@H](C)NC(=O)[C@H](CC(=O)O)NC(=O)[C@H](CC(C)C)NC(=O)[C@H](NC(C)=O)C(c1ccccc1)c1ccccc1)C(=O)N[C@@H](Cc1c[nH]c2ccccc12)C(=O)O [(S)-3-[(S)-2-((S)-2-Acetylamino-3,3-diphenyl-propionylamino)-4-methyl-pentanoylamino]-N-((S)-1-{(1S,2S)-1-[(S)-1-carboxy-2-(1H-indol-3-yl)-ethylcarbamoyl]-2-methyl-butylcarbamoyl}-ethyl)-succinamic acid]",420
5,"CC[C@H](C)[C@H](NC(=O)[C@@H](NC(=O)[C@H](CC(=O)O)NC(=O)[C@H](CC(C)C)NC(=O)[C@@H](NC(C)=O)C(c1ccccc1)c1ccccc1)C(C)C)C(=O)N[C@@H](Cc1c[nH]c2ccccc12)C(=O)O [(S)-3-[(S)-2-((S)-2-Acetylamino-3,3-diphenyl-propionylamino)-4-methyl-pentanoylamino]-N-((S)-1-{(1S,2S)-1-[(S)-1-carboxy-2-(1H-indol-3-yl)-ethylcarbamoyl]-2-methyl-butylcarbamoyl}-2-methyl-propyl)-succinamic acid] (Ac-[Dip]LDVIW-OH)",29
6,"CC[C@H](C)[C@H](NC(=O)[C@H](CC(=O)O)NC(=O)[C@H](CCCNC(=N)N)NC(=O)[C@H](NC(C)=O)C(c1ccccc1)c1ccccc1)C(=O)N[C@H](C(=O)N[C@@H](Cc1c[nH]c2ccccc12)C(=O)O)[C@@H](C)CC [(S)-3-[(S)-2-((S)-2-Acetylamino-3,3-diphenyl-propionylamino)-5-guanidino-pentanoylamino]-N-((1S,2S)-1-{(1S,2S)-1-[(S)-1-carboxy-2-(1H-indol-3-yl)-ethylcarbamoyl]-2-methyl-butylcarbamoyl}-2-methyl-butyl)-succinamic acid]",14
7,"CC[C@H](C)[C@H](NC(=O)[C@H](Cc1ccccc1)NC(=O)[C@H](CC(=O)O)NC(=O)[C@H](CC(C)C)NC(=O)[C@@H](NC(C)=O)C(c1ccccc1)c1ccccc1)C(=O)N[C@@H](Cc1c[nH]c2ccccc12)C(=O)O [(S)-3-[(S)-2-((S)-2-Acetylamino-3,3-diphenyl-propionylamino)-4-methyl-pentanoylamino]-N-((S)-1-{(1S,2S)-1-[(S)-1-carboxy-2-(1H-indol-3-yl)-ethylcarbamoyl]-2-methyl-butylcarbamoyl}-2-phenyl-ethyl)-succinamic acid] (Ac-[Dip]LDFIW-OH)",160
8,"CC[C@H](C)[C@H](NC(=O)[C@H](CC(=O)O)NC(=O)[C@H](CCC(=O)O)NC(=O)[C@H](NC(C)=O)C(c1ccccc1)c1ccccc1)C(=O)N[C@H](C(=O)N[C@@H](Cc1c[nH]c2ccccc12)C(=O)O)[C@@H](C)CC [(S)-4-((S)-2-Acetylamino-3,3-diphenyl-propionylamino)-4-[(S)-2-carboxy-1-((1S,2S)-1-{(1S,2S)-1-[(S)-1-carboxy-2-(1H-indol-3-yl)-ethylcarbamoyl]-2-methyl-butylcarbamoyl}-2-methyl-butylcarbamoyl)-ethylcarbamoyl]-butyric acid] (Ac-[dDip]EDIIW-OH)",130
9,"CC[C@H](C)[C@H](NC(=O)[C@H](CC(=O)O)NC(=O)[C@H](CC(C)C)NC(=O)[C@@H](NC(=O)NC)C(c1ccccc1)c1ccccc1)C(=O)N[C@H](C(=O)N[C@@H](Cc1c[nH]c2ccccc12)C(=O)O)[C@@H](C)CC [(S)-N-((1S,2S)-1-{(1S,2S)-1-[(S)-1-Carboxy-2-(1H-indol-3-yl)-ethylcarbamoyl]-2-methyl-butylcarbamoyl}-2-methyl-butyl)-3-{(S)-4-methyl-2-[(S)-2-(3-methyl-ureido)-3,3-diphenyl-propionylamino]-pentanoylamino}-succinamic acid] ({NHMe-CO}-[Dip]LDIIW-OH)",280
10,"CC[C@H](C)[C@H](NC(=O)[C@H](CC(=O)O)NC(=O)[C@H](CC(C)C)NC(=O)[C@@H](NC(=O)C(F)(F)F)C(c1ccccc1)c1ccccc1)C(=O)N[C@H](C(=O)N[C@@H](Cc1c[nH]c2ccccc12)C(=O)O)[C@@H](C)CC [(S)-N-((1S,2S)-1-{(1S,2S)-1-[(S)-1-Carboxy-2-(1H-indol-3-yl)-ethylcarbamoyl]-2-methyl-butylcarbamoyl}-2-methyl-butyl)-3-{(S)-2-[(S)-3,3-diphenyl-2-(2,2,2-trifluoro-acetylamino)-propionylamino]-4-methyl-pentanoylamino}-succinamic acid] (Tfa-[Dip]LDIIW-OH)",1700
11,"CC[C@H](C)[C@H](NC(=O)[C@H](CC(=O)O)NC(=O)[C@H](CC(C)C)NC(=O)[C@H](NC(C)=O)C(c1ccccc1)c1ccccc1)C(=O)N[C@H](C(=O)N[C@@H](Cc1ccccc1)C(=O)O)[C@@H](C)CC [(S)-3-[(S)-2-((S)-2-Acetylamino-3,3-diphenyl-propionylamino)-4-methyl-pentanoylamino]-N-{(1S,2S)-1-[(1S,2S)-1-(1-carboxy-2-phenyl-ethylcarbamoyl)-2-methyl-butylcarbamoyl]-2-methyl-butyl}-succinamic acid]",> 10000

# Results, then the molecule that gave them:
row,IC50 [nM],Structure (SMILES)
1,> 10000,"CC[C@H](C)[C@H](NC(=O)[C@H](CC(=O)O)NC(=O)[C@H](CC(C)C)NC(=O)[C@@H](NC(C)=O)C(c1ccccc1)c1ccccc1)C(=O)N[C@@H](CCCCN)C(=O)N[C@@H](Cc1c[nH]c2ccccc12)C(=O)O [(S)-3-[(S)-2-((S)-2-Acetylamino-3,3-diphenyl-propionylamino)-4-methyl-pentanoylamino]-N-((1S,2S)-1-{(S)-5-amino-1-[(S)-1-carboxy-2-(1H-indol-3-yl)-ethylcarbamoyl]-pentylcarbamoyl}-2-methyl-butyl)-succinamic acid] (Ac-[Dip]LDIKW-OH)"
2,70,"CC[C@H](C)[C@H](NC(=O)[C@H](C)NC(=O)[C@H](CC(C)C)NC(=O)[C@@H](NC(C)=O)C(c1ccccc1)c1ccccc1)C(=O)N[C@H](C(=O)N[C@@H](Cc1c[nH]c2ccccc12)C(=O)O)[C@@H](C)CC [(S)-2-[(2S,3S)-2-((2S,3S)-2-{(S)-2-[(S)-2-((S)-2-Acetylamino-3,3-diphenyl-propionylamino)-4-methyl-pentanoylamino]-propionylamino}-3-methyl-pentanoylamino)-3-methyl-pentanoylamino]-3-(1H-indol-3-yl)-propionic acid] (Ac-[Dip]LAIIW-OH)"
3,> 10000,"CC[C@H](C)[C@H](NC(=O)[C@H](CC(=O)O)NC(=O)[C@H](CC(C)C)NC(=O)[C@H](NC(C)=O)C(c1ccccc1)c1ccccc1)C(=O)N[C@@H](Cc1ccccc1)C(=O)N[C@@H](Cc1c[nH]c2ccccc12)C(=O)O [(S)-3-[(S)-2-((S)-2-Acetylamino-3,3-diphenyl-propionylamino)-4-methyl-pentanoylamino]-N-((1S,2S)-1-{(S)-1-[(S)-1-carboxy-2-(1H-indol-3-yl)-ethylcarbamoyl]-2-phenyl-ethylcarbamoyl}-2-methyl-butyl)-succinamic acid]"
4,30,"CC[C@H](C)[C@H](NC(=O)[C@H](CC(=O)O)NC(=O)[C@H](CCCN)NC(=O)[C@@H](NC(C)=O)C(c1ccccc1)c1ccccc1)C(=O)N[C@H](C(=O)N[C@@H](Cc1c[nH]c2ccccc12)C(=O)O)[C@@H](C)CC [(S)-3-[(S)-2-((S)-2-Acetylamino-3,3-diphenyl-propionylamino)-5-amino-pentanoylamino]-N-((1S,2S)-1-{(1S,2S)-1-[(S)-1-carboxy-2-(1H-indol-3-yl)-ethylcarbamoyl]-2-methyl-butylcarbamoyl}-2-methyl-butyl)-succinamic acid] (Ac-[Dip][Orn]DIIW-OH)"
5,340,"CC[C@H](C)[C@H](NC(=O)[C@H](CC(=O)O)NC(=O)[C@H](CC(C)C)NC(=O)[C@H](NC(C)=O)C(c1ccccc1)c1ccccc1)C(=O)N[C@@H](CC(C)C)C(=O)N[C@@H](Cc1c[nH]c2ccccc12)C(=O)O [(S)-3-[(S)-2-((S)-2-Acetylamino-3,3-diphenyl-propionylamino)-4-methyl-pentanoylamino]-N-((1S,2S)-1-{(S)-1-[(S)-1-carboxy-2-(1H-indol-3-yl)-ethylcarbamoyl]-3-methyl-butylcarbamoyl}-2-methyl-butyl)-succinamic acid]"
6,2100,"CC[C@H](C)[C@H](NC(=O)[C@H](CC(=O)O)NC(=O)[C@H](CC(C)C)NC(=O)[C@@H](NS(C)(=O)=O)C(c1ccccc1)c1ccccc1)C(=O)N[C@H](C(=O)N[C@@H](Cc1c[nH]c2ccccc12)C(=O)O)[C@@H](C)CC [(S)-N-((1S,2S)-1-{(1S,2S)-1-[(S)-1-Carboxy-2-(1H-indol-3-yl)-ethylcarbamoyl]-2-methyl-butylcarbamoyl}-2-methyl-butyl)-3-[(S)-2-((S)-2-methanesulfonylamino-3,3-diphenyl-propionylamino)-4-methyl-pentanoylamino]-succinamic acid] (Ms-[Dip]LDIIW-OH)"
